Experiments:
[1] = target: T1, P2X2/3 (Homo sapiens, UniProt P56373+Q9UBL9); test: Calcium uptake assay (P2X antagonist assay, inhibition of agonist-induced calcium influx), P2X2/3; format: cell-based; conditions: inhibition of agonist-induced calcium influx in cells expressing the receptor
T1 construct: expressed in transfected cells; host or cells: cell line stably expressing P2X2, stably transfected with P2X3 (e.g. HEK293 or 1321N1)
T1 sequence (Q9UBL9 1-471): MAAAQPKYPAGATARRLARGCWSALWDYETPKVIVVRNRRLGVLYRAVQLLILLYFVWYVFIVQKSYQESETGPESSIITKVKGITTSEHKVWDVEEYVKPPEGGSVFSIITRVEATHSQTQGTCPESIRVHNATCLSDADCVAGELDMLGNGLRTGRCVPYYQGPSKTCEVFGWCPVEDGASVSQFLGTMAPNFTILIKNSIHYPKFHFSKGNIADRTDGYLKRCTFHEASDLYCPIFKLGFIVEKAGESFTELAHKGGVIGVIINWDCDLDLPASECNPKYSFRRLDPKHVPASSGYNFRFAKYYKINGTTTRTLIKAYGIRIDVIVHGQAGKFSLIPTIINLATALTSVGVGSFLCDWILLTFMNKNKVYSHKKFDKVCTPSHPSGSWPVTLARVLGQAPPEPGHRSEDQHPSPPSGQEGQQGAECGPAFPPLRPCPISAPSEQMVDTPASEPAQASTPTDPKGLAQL
T1 sequence (P56373 1-397): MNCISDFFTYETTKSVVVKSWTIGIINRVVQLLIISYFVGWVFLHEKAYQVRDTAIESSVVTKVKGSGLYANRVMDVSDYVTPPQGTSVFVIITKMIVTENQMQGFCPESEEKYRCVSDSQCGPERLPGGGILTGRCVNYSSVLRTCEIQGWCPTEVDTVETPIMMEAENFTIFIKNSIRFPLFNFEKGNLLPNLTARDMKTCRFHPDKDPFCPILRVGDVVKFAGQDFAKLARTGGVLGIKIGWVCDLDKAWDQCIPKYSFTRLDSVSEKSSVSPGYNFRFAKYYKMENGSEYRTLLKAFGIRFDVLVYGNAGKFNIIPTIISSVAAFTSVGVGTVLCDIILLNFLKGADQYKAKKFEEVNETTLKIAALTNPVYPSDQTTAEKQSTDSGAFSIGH
From the text: (§1) The human P2X2/3 chimera clone is created as described by Neelands et al, and then cloned into an expression vector as above. Receptors are expressed in cells (e.g., HEK293 or 1321N1 (obtained from the ECACC)) via transient transfection using standard lipid mediated transfection, or by creation of stable transfectants for each receptor. For expression of the P2X2/3 heteromeric receptor, the P2X3 expression vector is stably transfected into a cell line already stably expressing P2X2. P2X2/3 heteromer function is isolated using pharmacological methods. Cell lines are maintained in DMEM+5% Glutamax, the appropriate level of selective antibiotic, and 10% heat inactivated FBS.
(§2) Functional activity of compounds at the P2X receptor is determined by measuring their ability to inhibit agonist-induced calcium influx. Compounds are tested for antagonist activity against the P2X2/3 chimera, the P2X3 homomer, or the P2X2/3 heteromer. At the start of each screening day, the agonist EC50 is determined. Compound % inhibition or IC50s are subsequently determined using a pre-determined agonist concentration (EC50-90 depending on cell line) as a stimulus. The agonists used are αβMeATP, ATP, or other ATP analogs. Compounds may be tested at concentrations ranging from 1 pM to 10 μM.
(§3) To test for antagonist activity, cells expressing the appropriate receptor are seeded onto 96 or 384 well plates 18-24 hours prior to assay. […] Plates are incubated at 37° C. and then equilibrated at room temperature. Antagonism of agonist-induced calcium influx is measured using a fluorescent imaging plate reader (e.g. FLIPR^TETRA, Molecular Devices, Sunnyvale, Calif.). The assay comprises two stages: a pre-treatment phase followed by a treatment phase. Compounds may be tested as follows: For the pre-treatment phase, 50 μL of 3× concentration of test compound in HBSS is added to cells containing 100 μL of dye loading media to achieve a final concentration of 1× test compound. For the treatment phase, at a set interval after pre-treatment (1-30 minutes), 50 μl, of 1× test compound plus 4× agonist solution is added, resulting in a final concentration of 1× compound and 1× agonist. […] Responses are measured as (peak fluorescence after agonist addition) minus (baseline fluorescence prior to treatment). Percent inhibition is calculated as follows: […]
(§4) IC50 values are determined by analyzing dose response data in a 4 parameter logistic fit using GraphPad Prizm.

[2] = target: T2, P2X3 (Homo sapiens, UniProt P56373); test: Calcium uptake assay (P2X antagonist assay, inhibition of agonist-induced calcium influx), P2X3; format: cell-based; conditions: inhibition of agonist-induced calcium influx in cells expressing the receptor
T2 construct: expressed in transfected cells; host or cells: e.g. HEK293 or 1321N1
T2 sequence (P56373 1-397): T1 sequence (P56373 1-397)
From the text: as §1, §2, §3, §4

Row | IC50 [1] [nM] | IC50 [2] [nM] | SMILES
1 | 377 | 236 | Cc1ccc(N2CCc3ncnc(NCc4ccc(C5CC5)cn4)c3C2)c(C#N)c1 [Compound 30, 2-{4-[(5-Cyclopropyl-pyridin-2-ylmethyl)-amino]-7,8-dihydro-5H-pyrido[4,3-d]pyrimidin-6-yl}-5-methyl-benzonitrile]
2 | 50 | 41 | Cc1ccc(N2CCc3ncnc(NCc4ncc(Cl)cc4Cl)c3C2)c(C#N)c1 [Compound 32, 2-{-4-[(3,5-Dichloro-pyridin-2-ylmethyl)-amino]-7,8-dihydro-5H-pyrido[4,3-d]pyrimidin-6-yl}-5-methyl-benzonitrile]
3 | 127 | 38 | CCc1ccc(CNc2ncnc3c2CN(c2ccc(C)cc2C#N)CC3)cn1 [Compound 33, 2-{4-[(6-Ethyl-pyridin-3-ylmethyl)-amino]-7,8-dihydro-5H-pyrido[4,3-d]pyrimidin-6-yl}-5-methyl-benzonitrile]
4 | 105 | 33 | COc1ccc([C@@H](CCO)Nc2ncnc3c2CN(c2ccc(Cl)cc2C#N)CC3)cn1 [Compound 34, 5-Chloro-2-{4-[(R)-3-hydroxy-1-(6-methoxy-pyridin-3-yl)-propylamino]-7,8-dihydro-5H-pyrido[4,3-d]pyrimidin-6-yl}-benzonitrile]
5 | 200 | 23 | COc1ccc([C@@H](CO)Nc2ncnc3c2CN(c2ccc(Cl)cc2C#N)CC3)cn1 [Compound 35, 5-Chloro-2-{4-[(S)-2-hydroxy-1-(6-methoxy-pyridin-3-yl)-ethylamino]-7,8-dihydro-5H-pyrido[4,3-d]pyrimidin-6-yl}-benzonitrile]
6 | 1090 | 183 | Cc1ccc(N2CCc3ncnc(NCc4cccc(C#N)c4)c3C2)c(C#N)c1 [Compound 36, 2-[4-(3-Cyano-benzylamino)-7,8-dihydro-5H-pyrido[4,3-d]pyrimidin-6-yl]-5-methyl-benzonitrile]
7 | 45 | 15 | Cc1ccc(N2CCc3ncnc(NCc4ccc5ocnc5c4)c3C2)c(C#N)c1 [Compound 38, 2-{4-[(Benzooxazol-5-ylmethyl)-amino]-7,8-dihydro-5H-pyrido[4,3-d]pyrimidin-6-yl}-5-methyl-benzonitrile]
8 | 92 | 21 | Cc1ccc(N2CCc3ncnc(NCc4ccc(C)c(-n5cncn5)c4)c3C2)c(C#N)c1 [Compound 40, 5-Methyl-2-{4-(4-methyl-3-[1,2,4]triazol-1-yl-benzylamino)-7,8-dihydro-5H-pyrido[4,3-d]pyrimidin-6-yl}-benzonitrile]
9 | 753 | 122 | N#Cc1cc(Cl)ccc1N1CCc2ncnc(NCc3ccn4ccnc4c3)c2C1 [Compound 44, 5-Chloro-2-{4-[(imidazo[1,2-a]pyridin-7-ylmethyl)-amino]-7,8-dihydro-5H-pyrido[4,3-d]pyrimidin-6-yl}-benzonitrile]
10 | 71 | 21 | Cc1ccc(N2CCc3ncnc(N[C@H](CO)c4ccc(C(F)(F)F)nc4)c3C2)c(C#N)c1 [Compound 46, 2-{4-[(S)-2-Hydroxy-1-(6-trifluoromethyl-pyridin-3-yl)-ethylamino]-7,8-dihydro-5H-pyrido[4,3-d]pyrimidin-6-yl}-5-methyl-benzonitrile]
11 | 671 | 54 | N#Cc1cc(Cl)ccc1N1CCc2ncnc(N[C@H](CO)c3ccc(C(F)(F)F)nc3)c2C1 [Compound 47, 5-Chloro-2-{4-[(S)-2-hydroxy-1-(6-trifluoromethyl-pyridin-3-yl)-ethylamino]-7,8-dihydro-5H-pyrido[4,3-d]pyrimidin-6-yl}-benzonitrile]
12 | 124 | 89 | Cc1ccc(N2CCc3ncnc(NCc4ccc(C)c(F)c4)c3C2)c(C#N)c1 [Compound 48, 2-[4-(3-Fluoro-4-methyl-benzylamino)-7,8-dihydro-5H-pyrido[4,3-d]pyrimidin-6-yl]-5-methyl-benzonitrile]
13 | 925 | 474 | CSc1cc(CNc2ncnc3c2CN(c2ccc(C)cc2C#N)CC3)ccc1C [Compound 49, 5-Methyl-2-[4-(4-methyl-3-methylsulfanyl-benzylamino)-7,8-dihydro-5H-pyrido[4,3-d]pyrimidin-6-yl]-benzonitrile]
14 | 63 | 31 | Cc1ccc(N2CCc3ncnc(NCc4ccc(Cl)c(-n5cnnc5)c4)c3C2)c(C#N)c1 [Compound 50, 2-[4-(4-Chloro-3-[1,2,4]triazol-4-yl-benzylamino)-7,8-dihydro-5H-pyrido[4,3-d]pyrimidin-6-yl]-5-methyl-benzonitrile]
15 | 1020 | 284 | N#Cc1cc(Cl)ccc1N1CCc2ncnc(NCc3cccc(-n4cnnc4)c3)c2C1 [Compound 51, 5-Chloro-2-[4-(3-[1,2,4]triazol-4-yl-benzylamino)-7,8-dihydro-5H-pyrido[4,3-d]pyrimidin-6-yl]-benzonitrile]
16 | 286 | 41 | N#Cc1cc(Cl)ccc1N1CCc2ncnc(NCc3ccc(Cl)c(-n4cnnc4)c3)c2C1 [Compound 52, 5-Chloro-2-[4-(4-chloro-3-[1,2,4]triazol-4-yl-benzylamino)-7,8-dihydro-5H-pyrido[4,3-d]pyrimidin-6-yl]-benzonitrile]
17 | 324 | 65 | Cc1ccc(N2CCc3ncnc(NCc4cccc(-n5cnnc5)c4)c3C2)c(C#N)c1 [Compound 53, 5-Methyl-2-[4-(3-[1,2,4]triazol-4-yl-benzylamino)-7,8-dihydro-5H-pyrido[4,3-d]pyrimidin-6-yl]-benzonitrile]
18 | 1300 | 512 | Cc1ccc(N2CCc3ncnc(NCc4ccc(C)c(I)c4)c3C2)c(C#N)c1 [Compound 55, 2-[4-(3-Iodo-4-methyl-benzylamino)-7,8-dihydro-5H-pyrido[4,3-d]pyrimidin-6-yl]-5-methyl-benzonitrile]
19 | 82 | 63 | Cc1ccc(N2CCc3ncnc(NCc4ccc(C)c(C#N)c4)c3C2)c(C#N)c1 [Compound 56]
20 | 55 | 16 | Cc1ccc(N2CCc3ncnc(NCc4ccc(C)c(S(C)(=O)=O)c4)c3C2)c(C#N)c1 [Compound 59, 2-{4-(3-Methanesulfonyl-4-methyl-benzylamino)-7,8-dihydro-5H-pyrido[4,3-d]pyrimidin-6-yl}-5-methyl-benzonitrile]
21 | 273 | 32 | N#Cc1cc(Cl)ccc1N1CCc2ncnc(N[C@H](CCO)c3ccc(C(F)F)nc3)c2C1 [Compound 62, 5-Chloro-2-{4-[(R)-1-(6-difluoromethyl-pyridin-3-yl)-3-hydroxy-propylamino]-7,8-dihydro-5H-pyrido[4,3-d]pyrimidin-6-yl}-benzonitrile]
22 | 1120 | 96 | Cc1ccc(N2CCc3ncnc(NCc4ccc(C)c(N5CCOCC5)c4)c3C2)c(C#N)c1 [Compound 63, 5-Methyl-2-[4-(4-methyl-3-morpholin-4-yl-benzylamino)-7,8-dihydro-5H-pyrido[4,3-d]pyrimidin-6-yl]-benzonitrile]
